Some results are limits rather than exact numbers.

The first assay deals with ABCA1 mRNA. The assay can be described thus: ABCA1 mRNA - HepG2 (qRT-PCR). The assay is classed as cell-based, human. The note with it: Homo sapiens; ABCA1 mRNA-HepG2 assay (Table 7). An excerpt:
qRT-PCR. For cell samples, treated cells were lysed with RLT plus lysis buffer (Qiagen). RNA was isolated with Qiagen RNEASY® Plus columns per manufacturer instructions, then reverse-transcribed to cDNA using […]® III Reverse Transcriptase (200 U/μL, Invitrogen) per supplier protocol. qPCR experiments were either performed with TAQMAN® gene expression master mix (Invitrogen) on a StepOne™ qPCR instrument or with […]® SYBR® Green SuperMix (Quanta Biosciences) on CFX Connect™ Real-Time PCR Detection System (BioRad), with fold-change quantified by ΔΔCt. For animal samples, 100 mg tissue was homogenized in 1 mL acid-guanidinium-phenol based reagent sold under the tradename TRIZOL® (Ambion), mixed vigorously in chloroform, and separated by centrifugation. Aqueous layer containing RNA was added to Qiagen RNEASY® Plus column; remaining stops were as described above for cell lysates.
As to `CCOc1ccc(N(C)S(=O)(=O)c2ccsc2C(=O)Nc2cccc(C(=O)CC)c2)cc1` [CL1-62, 3-(N-(4-ethoxyphenyl)-N-methylsulfamoyl)-N-(3-propionylphenyl)thiophene-2-carboxamide], the EC50 (commonly the concentration giving half of the maximal effect) is above 5 µM.

In turn, `CCOc1ccc(N(C)S(=O)(=O)c2ccsc2C(=O)Nc2cccc(C(=O)OC)c2)cc1` [CL1-87, Methyl 3-(3-(N-(4-ethoxyphenyl)-N-methylsulfamoyl)thiophene-2-carboxamido) benzoate] had a half-maximal effective concentration (EC50) above 5 µM.

For `CCOc1ccc(N(C)S(=O)(=O)c2ccsc2C(=O)Nc2cccc(C(=O)OC(C)C)c2)cc1` [CL1-88, Isopropyl 3-(3-(N-(4-ethoxyphenyl)-N-methylsulfamoyl)thiophene-2-carboxamido) benzoate], it took 4.5 µM to reach a half-maximal effect (EC50).

`CCOC(=O)c1cccc(NC(=O)c2sccc2S(=O)(=O)N(C)c2cccc(OCC)c2)c1` [CL2-1, Ethyl 3-(3-(N-(3-ethoxyphenyl)-N-methylsulfamoyl)thiophene-2-carboxamido)benzoate]: the EC50 is above 5 µM.

Take `CCCOc1ccc(N(C)S(=O)(=O)c2ccsc2C(=O)Nc2cccc(C(=O)OCC)c2)cc1` [CL2-16, Ethyl 3-(3-(N-methyl-N-(4-propoxyphenyl)sulfamoyl)thiophene-2-carboxamido) benzoate]: the EC50 was 3.5 µM.

On to `CCOC(=O)c1cccc(NC(=O)c2sccc2S(=O)(=O)N(C)c2ccc(OCC)c(OCC)c2)c1` [CL2-43, Ethyl 3-(3-(N-(3,4-diethoxyphenyl)-N-methylsulfamoyl)thiophene-2-carboxamido)benzoate], for which the EC50 worked out at 2.8 µM.

The compound `CCOc1ccc(N(C)S(=O)(=O)c2cc(Cl)sc2C(=O)Nc2cccc(S(C)(=O)=O)c2)cc1OCC` [CL2-63, 5-Chloro-3-(N-(3,4-diethoxyphenyl)-N-methylsulfamoyl)-N-(3-(methylsulfonyl)phenyl)thiophene-2-carboxamide] returned an EC50 of 4.8 µM.

`CCOc1ccc(N(C)S(=O)(=O)c2cc(Cl)sc2C(=O)Nc2cccc(C(=O)CC)c2)cc1OCC` [CL2-64, 5-Chloro-3-(N-(3,4-diethoxyphenyl)-N-methylsulfamoyl)-N-(3-propionylphenyl)thiophene-2-carboxamide] came in with an EC50 above 5 µM.

`CCOC(=O)c1cccc(NC(=O)c2sc(Cl)cc2S(=O)(=O)N(C)c2ccc(OCC)c(OC)c2)c1` [CL2-85, Ethyl 3-(5-chloro-3-(N-(4-ethoxy-3-methoxyphenyl)-N-methylsulfamoyl)thiophene-2-carboxamido)benzoate] yielded an EC50 of 1.1 µM.

In the case of `CCOC(=O)c1cccc(NC(=O)c2sc(Cl)cc2S(=O)(=O)N(C)c2ccc(OCC)cc2F)c1` [CL2-143, Ethyl 3-(5-chloro-3-(N-(4-ethoxy-2-fluorophenyl)-N-methylsulfamoyl)thiophene-2-carboxamido)benzoate], the EC50 was determined as 3.5 µM.

As for `CCOC(=O)c1cccc(NC(=O)c2sc(Cl)cc2S(=O)(=O)N(C)c2ccc(N3CCNCC3)cc2)c1` [CL2-200, Ethyl 3-(5-chloro-3-(N-methyl-N-(4-(piperazin-1-yl)phenyl)sulfamoyl)thiophene-2-carboxamido)benzoate], the EC50 came out at 3.7 µM.

With `CCOC(=O)c1cccc(NC(=O)c2sc(Cl)cc2S(=O)(=O)N(C)c2ccc(OCC)c(OCC)c2)n1` [CL3-2, Ethyl 6-(5-chloro-3-(N-(3,4-diethoxyphenyl)-N-methylsulfamoyl)thiophene-2-carboxamido)picolinate], the EC50 is above 5 µM.

In the next assay the test system is ABCA1. The assay can be described thus: ABCA1 firefly reporter assay in CCF-001 cells. The assay is classed as cell-based. The conditions noted are these: ABCA1 firefly reporter assay in CCF-001 cells (Table 8). (In general: Reporter assays use an easily measured gene product as a stand-in for the process of interest.)
Compound `CCOc1ccc(N(C)S(=O)(=O)c2ccsc2C(=O)Nc2cccc(C(=O)OC)c2)cc1` [CL1-87, Methyl 3-(3-(N-(4-ethoxyphenyl)-N-methylsulfamoyl)thiophene-2-carboxamido) benzoate] returned an EC50 of 3.97 µM. This lies in the single-digit micromolar range.

`CCOC(=O)c1cccc(NC(=O)c2sccc2S(=O)(=O)N(C)c2cccc(OCC)c2)c1` [CL2-1, Ethyl 3-(3-(N-(3-ethoxyphenyl)-N-methylsulfamoyl)thiophene-2-carboxamido)benzoate]: the EC50 was determined as 4.65 µM.

With `CCCOc1ccc(N(C)S(=O)(=O)c2ccsc2C(=O)Nc2cccc(C(=O)OCC)c2)cc1` [CL2-16, Ethyl 3-(3-(N-methyl-N-(4-propoxyphenyl)sulfamoyl)thiophene-2-carboxamido) benzoate], the EC50 stood at 2.36 µM.

Regarding `CCOc1ccc(N(C)S(=O)(=O)c2cc(Cl)sc2C(=O)Nc2cccc(S(C)(=O)=O)c2)cc1OCC` [CL2-63, 5-Chloro-3-(N-(3,4-diethoxyphenyl)-N-methylsulfamoyl)-N-(3-(methylsulfonyl)phenyl)thiophene-2-carboxamide], the EC50 was determined as 12.6 µM.

In the case of `CCOC(=O)c1cccc(NC(=O)c2sc(Cl)cc2S(=O)(=O)N(C)c2ccc(OCC)c(OC)c2)c1` [CL2-85, Ethyl 3-(5-chloro-3-(N-(4-ethoxy-3-methoxyphenyl)-N-methylsulfamoyl)thiophene-2-carboxamido)benzoate], it took 0.19 µM to reach a half-maximal effect (EC50).

With `CCOC(=O)c1cccc(NC(=O)c2sc(Cl)cc2S(=O)(=O)N(C)c2ccc(OCC)cc2F)c1` [CL2-143, Ethyl 3-(5-chloro-3-(N-(4-ethoxy-2-fluorophenyl)-N-methylsulfamoyl)thiophene-2-carboxamido)benzoate], the EC50 came out at 1.62 µM.

With `CCOc1ccc(N(C)S(=O)(=O)c2cc(Cl)sc2C(=O)Nc2cc(Cl)ccc2F)cc1OC` [GR1-001, 5-Chloro-N-(5-chloro-2-fluorophenyl)-3-(N-(4-ethoxy-3-methoxyphenyl)-N-methylsulfamoyl)thiophene-2-carboxamide], a half-maximal effect (EC50) was put at 0.82 µM.

Turning to `CCOc1ccc(N(C)S(=O)(=O)c2cc(Cl)sc2C(=O)Nc2cc(C(F)(F)F)cc(C(F)(F)F)c2)cc1OC` [GR1-002, N-(3,5-bis (trifluoromethyl)phenyl)-5-chloro-3-(N-(4-ethoxy-3-methoxyphenyl)-N-methylsulfamoyl)thiophene-2-carboxamide], the 50% effective concentration (EC50) was found to be 2.02 µM. This EC50 lies about 2.5-fold higher than the previous one.

Compound `CCOC(=O)c1cccc(-c2nnc(-c3sc(Cl)cc3S(=O)(=O)N(C)c3ccc(OCC)c(OC)c3)o2)c1` [GR1-015, Ethyl 3-(5-(5-chloro-3-(N-(4-ethoxy-3-methoxyphenyl)-N-methylsulfamoyl)thiophen-2-yl)-1,3,4-oxadiazol-2-yl)benzoate] came in with an EC50 of 3.08 µM.

In turn, `C#CCOc1ccc(C(=O)c2ccc(OC(=O)c3cc(Cl)cc(NC(=O)c4sc(Cl)cc4S(=O)(=O)N(C)c4ccc(OCC)c(OC)c4)c3)cc2)cc1` [GR1-019, 4-(4-(Prop-2-yn-1-yloxy)benzoyl)phenyl 3-chloro-5-(5-chloro-3-(N-(4-ethoxy-3-methoxyphenyl)-N-methylsulfamoyl)thiophene-2-carboxamido)benzoate] had an EC50 of 0.066 µM.

On to `CCOc1ccc(N(C)S(=O)(=O)c2cc(Cl)sc2C(=O)Nc2cccc(Cl)c2)cc1OC` [GR1-046, 5-Chloro-N-(3-chlorophenyl)-3-(N-(4-ethoxy-3-methoxyphenyl)-N-methylsulfamoyl)thiophene-2-carboxamide], for which it took 2.7 µM to reach a half-maximal effect (EC50).

In the case of `CCOc1ccc(N(C)S(=O)(=O)c2cc(Cl)sc2C(=O)Nc2cccc(F)c2)cc1OC` [GR1-047, 5-Chloro-3-(N-(4-ethoxy-3-methoxyphenyl)-N-methylsulfamoyl)-N-(3-fluorophenyl)thiophene-2-carboxamide], the EC50 is 2.53 µM. The EC50 values of the last two compounds are within 1.5-fold of each other.

In turn, `CCOc1ccc(N(C)S(=O)(=O)c2cc(Cl)sc2C(=O)Nc2cccc(Br)c2)cc1OC` [GR1-048, N-(3-bromophenyl)-5-chloro-3-(N-(4-ethoxy-3-methoxyphenyl)-N-methylsulfamoyl)thiophene-2-carboxamide] came in with an EC50 of 1.24 µM. Against the preceding compound, the EC50 is about 2-fold lower.

As to `CCOc1ccc(N(C)S(=O)(=O)c2cc(Cl)sc2C(=O)Nc2cc(Cl)cc(Cl)c2)cc1OC` [GR1-049, 5-Chloro-N-(3,5-dichlorophenyl)-3-(N-(4-ethoxy-3-methoxyphenyl)-N-methylsulfamoyl)thiophene-2-carboxamide], the EC50 came to 0.79 µM. Against the preceding compound, the EC50 is about 1.6-fold lower.

With `CCOc1ccc(N(C)S(=O)(=O)c2cc(Cl)sc2C(=O)Nc2cc(F)cc(Cl)c2)cc1OC` [GR1-050, 5-Chloro-N-(3-chloro-5-fluorophenyl)-3-(N-(4-ethoxy-3-methoxyphenyl)-N-methylsulfamoyl)thiophene-2-carboxamide], a half-maximal response (EC50) required 1.09 µM. This EC50 and that of the compound before are within 1.5-fold of each other.

Compound `CCOc1ccc(N(C)S(=O)(=O)c2cc(Cl)sc2C(=O)Nc2cc(Cl)cc(Br)c2)cc1OC` [GR1-051, N-(3-bromo-5-chlorophenyl)-5-chloro-3-(N-(4-ethoxy-3-methoxyphenyl)-N-methylsulfamoyl)thiophene-2-carboxamide] gave an EC50 of 3.6 µM.

`CCOc1ccc(N(C)S(=O)(=O)c2cc(Cl)sc2C(=O)Nc2cc(Cl)cc(C(F)(F)F)c2)cc1OC` [GR1-052, 5-Chloro-N-(3-chloro-5-(trifluoromethyl)phenyl)-3-(N-(4-ethoxy-3-methoxyphenyl)-N-methylsulfamoyl)thiophene-2-carboxamide] gave an EC50 of 1.55 µM.

As for `CCOC(=O)c1cc(Br)cc(NC(=O)c2sc(Cl)cc2S(=O)(=O)N(C)c2ccc(OCC)c(OC)c2)c1` [GR1-054, Ethyl 3-bromo-5-(5-chloro-3-(N-(4-ethoxy-3-methoxyphenyl)-N-methylsulfamoyl)thiophene-2-carboxamido)benzoate], the EC50 was 0.564 µM.

`CCOc1ccc(N(C)S(=O)(=O)c2cc(Cl)sc2C(=O)Nc2cc(Cl)cc(C(=O)Oc3ccccc3)c2)cc1OC` [GR1-059, Phenyl 3-chloro-5-(5-chloro-3-(N-(4-ethoxy-3-methoxyphenyl)-N-methylsulfamoyl)thiophene-2-carboxamido)benzoate]: the EC50 turned out to be 0.135 µM.

In turn, `CCOc1ccc(N(C)S(=O)(=O)c2cc(Cl)sc2C(=O)Nc2cc(Cl)cc([N+](=O)[O-])c2)cc1OC` [GR1-064, 5-Chloro-N-(3-chloro-5-nitrophenyl)-3-(N-(4-ethoxy-3-methoxyphenyl)-N-methylsulfamoyl)thiophene-2-carboxamide] displayed an EC50 of 0.578 µM.

On to `CCOc1ccc(N(C)S(=O)(=O)c2cc(Cl)sc2C(=O)Nc2cc(Cl)cc(C(=O)Oc3ccc(C(C)=O)cc3)c2)cc1OC` [GR1-067, 4-Acetylphenyl 3-chloro-5-(5-chloro-3-(N-(4-ethoxy-3-methoxyphenyl)-N-methylsulfamoyl)thiophene-2-carboxamido)benzoate], for which the midpoint of the response, the EC50, lay at 0.011 µM.

`CCOc1ccc(N(C)S(=O)(=O)c2cc(Cl)sc2C(=O)Nc2cc(Cl)cc(C(=O)Oc3ccc(C(=O)c4ccccc4)cc3)c2)cc1OC` [GR1-068, 4-Benzoylphenyl 3-chloro-5-(5-chloro-3-(N-(4-ethoxy-3-methoxyphenyl)-N-methylsulfamoyl)thiophene-2-carboxamido)benzoate] showed a half-maximal effective concentration (EC50) of 0.148 µM.

On to `CCOc1ccc(N(C)S(=O)(=O)c2cc(Cl)sc2C(=O)Nc2cc(Cl)cc(C(=O)Oc3ccc(C(=O)c4ccc(O)cc4)cc3)c2)cc1OC` [GR1-069, 4-(4-Hydroxybenzoyl)phenyl 3-chloro-5-(5-chloro-3-(N-(4-ethoxy-3-methoxyphenyl)-N-methylsulfamoyl)thiophene-2-carboxamido)benzoate], for which the EC50 worked out at 0.211 µM.

Turning to `O=C(O)Cc1cccc(OCCCN(Cc2cccc(C(F)(F)F)c2Cl)CC(c2ccccc2)c2ccccc2)c1` [GW3965, reference compound], a half-maximal effect (EC50) was put at 0.269 µM.

The values are drawn from patent publication US20240199572A1, “COMPOUNDS, COMPOSITIONS, AND METHODS FOR TREATING TYPE 2 DIABETES AND DEMENTIA” (THE BOARD OF TRUSTEES OF THE UNIVERSITY OF ILLINOIS, priority 2021, published 2024).
